This note sets out measurements from US12275731B2, “Azaindole inhibitors of wild-type and mutant forms of LRRK2” (DANA-FARBER CANCER INSTITUTE, INC., priority 2018, dated 2025).

Each structure is given as a SMILES string.

In test [1] the target is T1, ASK1 (Homo sapiens, UniProt Q99683).
T1 construct: purchased KinomeScan®
T1 sequence (Q99683 1-1374): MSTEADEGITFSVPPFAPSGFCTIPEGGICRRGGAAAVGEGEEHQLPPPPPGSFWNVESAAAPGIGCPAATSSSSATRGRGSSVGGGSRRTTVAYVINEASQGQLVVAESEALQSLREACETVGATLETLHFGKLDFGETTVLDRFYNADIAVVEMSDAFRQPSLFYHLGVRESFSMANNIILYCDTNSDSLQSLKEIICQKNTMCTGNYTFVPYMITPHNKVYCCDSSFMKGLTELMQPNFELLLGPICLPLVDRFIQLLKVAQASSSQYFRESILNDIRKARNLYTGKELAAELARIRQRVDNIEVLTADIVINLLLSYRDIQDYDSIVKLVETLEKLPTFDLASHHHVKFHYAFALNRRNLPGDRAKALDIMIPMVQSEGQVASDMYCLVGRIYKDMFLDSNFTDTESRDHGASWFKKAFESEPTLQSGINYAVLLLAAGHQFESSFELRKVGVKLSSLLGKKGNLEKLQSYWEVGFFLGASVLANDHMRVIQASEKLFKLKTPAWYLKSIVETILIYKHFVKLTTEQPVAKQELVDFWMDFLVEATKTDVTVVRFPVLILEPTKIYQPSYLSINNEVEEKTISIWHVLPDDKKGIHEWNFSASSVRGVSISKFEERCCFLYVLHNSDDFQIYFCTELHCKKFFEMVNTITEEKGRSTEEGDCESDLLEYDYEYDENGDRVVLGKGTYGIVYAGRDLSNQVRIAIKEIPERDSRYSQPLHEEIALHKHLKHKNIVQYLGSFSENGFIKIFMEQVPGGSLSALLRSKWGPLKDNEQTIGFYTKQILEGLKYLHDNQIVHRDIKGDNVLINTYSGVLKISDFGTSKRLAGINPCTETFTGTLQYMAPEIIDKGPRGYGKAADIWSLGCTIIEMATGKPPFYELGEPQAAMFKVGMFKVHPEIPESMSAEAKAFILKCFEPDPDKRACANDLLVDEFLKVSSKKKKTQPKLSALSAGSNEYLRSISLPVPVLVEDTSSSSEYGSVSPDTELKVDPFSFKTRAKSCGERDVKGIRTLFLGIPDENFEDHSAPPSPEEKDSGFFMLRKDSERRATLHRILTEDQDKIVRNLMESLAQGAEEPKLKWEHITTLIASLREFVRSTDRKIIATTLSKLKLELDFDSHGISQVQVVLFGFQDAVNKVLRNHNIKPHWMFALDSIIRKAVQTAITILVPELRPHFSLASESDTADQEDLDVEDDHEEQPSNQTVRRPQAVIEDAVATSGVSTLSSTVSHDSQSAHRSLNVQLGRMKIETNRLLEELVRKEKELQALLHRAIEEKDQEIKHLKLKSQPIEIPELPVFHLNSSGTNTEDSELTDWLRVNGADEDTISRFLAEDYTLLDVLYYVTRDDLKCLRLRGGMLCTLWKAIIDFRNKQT
The experiment in a line: KinomeScan profiling. Format: binding. The settings on record: ASK1, 1 μM; read-out: % control. The gist of the method:
(§1)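 1 μM cpd in DMSO; 468-kinase panel; readout RLU. % ctrl = (cpd − pos ctrl)/(neg ctrl − pos ctrl) ×100. Pos ctrl = 0%, DMSO = 100%. Hit cut-off <35%.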

Test [2] has as its target T2, STK36 (Homo sapiens, UniProt Q9NRP7).
T2 construct: purchased KinomeScan® (panel service)
T2 sequence (Q9NRP7 1-1315): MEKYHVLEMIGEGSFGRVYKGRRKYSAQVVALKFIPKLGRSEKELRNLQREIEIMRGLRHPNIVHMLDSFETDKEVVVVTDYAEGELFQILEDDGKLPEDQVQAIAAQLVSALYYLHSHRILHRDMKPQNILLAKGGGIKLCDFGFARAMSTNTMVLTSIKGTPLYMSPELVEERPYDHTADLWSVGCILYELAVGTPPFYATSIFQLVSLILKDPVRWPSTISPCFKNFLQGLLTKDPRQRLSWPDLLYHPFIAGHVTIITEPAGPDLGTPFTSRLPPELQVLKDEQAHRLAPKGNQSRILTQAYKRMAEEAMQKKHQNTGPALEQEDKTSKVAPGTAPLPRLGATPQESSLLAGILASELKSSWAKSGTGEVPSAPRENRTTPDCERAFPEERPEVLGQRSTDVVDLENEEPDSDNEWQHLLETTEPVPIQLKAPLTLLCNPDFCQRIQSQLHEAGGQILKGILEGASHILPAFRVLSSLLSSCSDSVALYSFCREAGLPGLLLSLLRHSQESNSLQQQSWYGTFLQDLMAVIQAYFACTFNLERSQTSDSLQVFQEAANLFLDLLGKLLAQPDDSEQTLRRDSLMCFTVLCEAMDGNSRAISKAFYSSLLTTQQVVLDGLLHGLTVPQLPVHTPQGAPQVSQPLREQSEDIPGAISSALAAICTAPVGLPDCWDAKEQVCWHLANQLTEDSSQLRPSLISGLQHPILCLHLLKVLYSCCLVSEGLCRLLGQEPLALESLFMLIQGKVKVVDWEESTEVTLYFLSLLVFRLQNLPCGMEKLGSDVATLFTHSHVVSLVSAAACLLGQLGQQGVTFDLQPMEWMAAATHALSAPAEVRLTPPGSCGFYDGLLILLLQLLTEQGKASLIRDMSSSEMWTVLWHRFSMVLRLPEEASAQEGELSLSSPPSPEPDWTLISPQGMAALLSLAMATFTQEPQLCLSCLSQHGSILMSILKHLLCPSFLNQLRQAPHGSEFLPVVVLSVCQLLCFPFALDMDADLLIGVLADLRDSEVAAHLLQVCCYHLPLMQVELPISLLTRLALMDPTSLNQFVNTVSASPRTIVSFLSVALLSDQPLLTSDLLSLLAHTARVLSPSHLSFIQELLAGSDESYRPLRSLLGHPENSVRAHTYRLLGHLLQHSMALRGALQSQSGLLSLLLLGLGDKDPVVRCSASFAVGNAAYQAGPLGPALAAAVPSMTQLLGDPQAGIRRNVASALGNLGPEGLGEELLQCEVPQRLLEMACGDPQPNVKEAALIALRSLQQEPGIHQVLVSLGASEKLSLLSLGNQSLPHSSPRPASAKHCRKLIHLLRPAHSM
The experiment in a line: KinomeScan profiling. The settings on record: STK36, 1 μM; read-out: % control. In kind it is binding. The gist of the method:
as §1

For the compound `CNc1c(-c2cnn([C@H]3CCN(C(C)=O)C[C@@H]3F)c2)cnc2[nH]cc(Cl)c12` [Compound 77, 1-((3S,4S)-4-(4-(3-chloro-4-(methylamino)-1H-pyrrolo[2,3-b]pyridin-5-yl)-1H-pyrazol-1-yl)-3-fluoropiperidin-1-yl)ethan-1-one], the remaining binding at 1 µM in test [1] was 4.3%; in test [2] it was 100%.
On to `CNc1c(-c2ccc(C(=O)N3CCC(N4CCOCC4)CC3)cc2)cnc2[nH]cc(Cl)c12` [Compound 96, (4-(3-chloro-4-(methylamino)-1H-pyrrolo[2,3-b]pyridin-5-yl)phenyl)(4-morpholinopiperidin-1-yl)methanone], for which the values for the remaining binding at 1 µM in test [1] and in test [2] were 5.9% and 99%, respectively.
In the same order, the values of `O=C(c1ccc(-c2cnc3[nH]cc(Cl)c3c2NC2CCCC2)cc1)N1CCC(N2CCOCC2)CC1` [Compound 101, (4-(3-chloro-4-(cyclopentylamino)-1H-pyrrolo[2,3-b]pyridin-5-yl)phenyl)(4-morpholinopiperidin-1-yl)methanone] are 94% and 96%.
